Assay [1] relates to PAECs. Description: Dil-Ac-LDL uptake assay. The assay is classed as cell-based, human. Conditions: TGF-β2, IL-1β and (R)-PFI-2; FIG. 9E. The method, then: PAECs were seeded at 2×10^5 cells per well in a 12-well plate. After a drug treatment, the cells were reacted with Dil-Ac-LDL (Invitrogen, 10 μg/ml) at 37° C. for 3 hours. After the reaction, the cells were washed four times with 1×PBS and then subjected to image analysis with a fluorescence microscope.

Assay [2] deals with SuHx-induced pulmonary arterial hypertension rats. In words: SuHx-induced pulmonary arterial hypertension animal model. The assay is classed as in vivo, rat. The following applies: subcutaneously 10 mg/kg for 3 weeks. The protocol:
8-Week-old male Sprague Dawley rats (specific-pathogen-free grade form SaeronBio, Republic of Korea) were used for the PAH rat model.
Semaxanib (DC Chemicals, SU5416) dissolved in DMSO and then suspended in a buffer (0.5% sodium carboxymethylcellulose, 0.5% sodium chloride, 0.4% Tween-80, and 0.9% benzyl alcohol that were dissolved in deionized water) was injected subcutaneously into the rats at 20 mg/kg. The rats were exposed to 10% 02 hypoxic conditions for 3 weeks. After the rats were restored to normoxic conditions, Cyproheptadine (Cayman) or (R)-PFI-2 (DC Chemicals) was administered. Cyproheptadine was administered intraperitoneally every day at 5 mg/kg for 2 weeks, and (R)-PFI-2 was administered subcutaneously every 2 days at 10 mg/kg for 3 weeks. A right ventricular systolic pressure (RVSP) was measured, and the rats were sacrificed.
Proteins were separated by sodium dodecyl sulfate polyacrylamide gel electrophoresis (SDS-PAGE) and transferred to a polyvinylidene difluoride membrane (Millipore). After blocking the membrane with 3% BSA dissolved in 0.2% PBS with Tween® detergent (PBST), the proteins on the membrane were reacted with the primary antibodies listed in Table 2 overnight. For immunodetection, HRP-conjugated secondary antibodies (1:4,000) were conjugated with the primary antibodies at room temperature for 1 hour (average temperature of 22° C.), and then detected using an enhanced chemiluminescence detection system (Thermo Scientific). In order to separate cytoplasmic and nuclear proteins, EpiQuik Nuclear Extraction Kit (EpiGentek) was used according to the manufacturer's instructions. Protein extracts from animal lung tissue were homogenized in RIPA buffer for 3 minutes at a frequency of 25 Hz.
The harvested animal lung tissue was embedded in paraffin blocks and cut into […] sections. The paraffin sections were deparaffinized using Histoclear for 10 minutes. In order to hydrate the sections, ethanol dissolved in pure water was used according to a concentration gradient (100%, 90%, 70%, 50%, 30%, and 0%). The tissue slides were placed in Borg Decloaker RTU antigen retrieval solution (Biocare Medical) and the sections were heated using a pressure cooker to recover antigens. When the temperature of the recovery solution was lowered, the sections were washed three times with 1×PBS for 5 minutes each, and then blocked with a blocking buffer (1% BSA and 5% goat serum dissolved in 1×PBS) at room temperature for 30 minutes. The sections were reacted with the primary antibodies at 4° C. overnight. Anti-vWF conjugated with FITC (Abcam, ab8822, 1:50), anti-α-SMA conjugated with Cy3 (Sigma Aldrich, C6198, 1:100), anti-SM22a (Abcam, ab14106, 1:130), and anti-SET7/9 (LsBio, C337450, 1:50) were used. For fluorescent staining, the sections were reacted with the secondary antibodies such as donkey anti-goat Alexa Fluor 568 (Invitrogen, 1:150 to 1:400), Goat anti-Rabbit Alexa Fluor 647 (Invitrogen, 1:150), and donkey anti-goat Alexa Fluor 568 (Invitrogen, 1:400) at room temperature for 1 hour. For color staining, after the sections were reacted with the primary antibodies overnight, the sections were reacted with Goat anti-Mouse IgG Secondary Antibody, HRP (Pierce, 1:100) for 1 hour and subjected to a color reaction using DAB staining kit (Vector, SK-4800). Hematoxylin-eosin staining was performed using staining products available from Vector. Image analysis was performed using confocal microscopes equipped with a 40× objective available from Zeiss and Leica. The co-localization effect was verified through Mander's overlap coefficient (MOC). […]
In order to confirm the effect of (R)-PFI-2 in an animal model, (R)-PFI-2 was administered subcutaneously to SuHx-induced pulmonary arterial hypertension rats at a concentration of 10 mg/kg for 3 weeks. […]

For assay [3], the system named is PAECs. In words: Dextran permeation assay. The assay is classed as cell-based, human. The following applies: TGF-β2, IL-1β and (R)-PFI-2; FIG. 9D. The protocol: PAECs were seeded at 2×10^5 cells per well in a 24-well plate equipped with a cell culture inlet (SPL, 0.4 μm). After a drug treatment, the insert was transferred to a well containing a serum-free medium (SFM), the medium in the insert was replaced with SFM containing FITC-dextran (Sigma Aldrich, FD40S, 1 mg/ml). After 10 minutes and 1 hour, a part of SFM was taken out from the plate well where dextran permeation occurred, and the fluorescence was measured. The fluorescence intensity was measured on a microplate reader (excitation, 485 nm; emission, 530 nm).

Assay [4] addresses T1, SET7/9 (Homo sapiens, UniProt Q8WTS6).
T1 sequence (Q8WTS6 1-366): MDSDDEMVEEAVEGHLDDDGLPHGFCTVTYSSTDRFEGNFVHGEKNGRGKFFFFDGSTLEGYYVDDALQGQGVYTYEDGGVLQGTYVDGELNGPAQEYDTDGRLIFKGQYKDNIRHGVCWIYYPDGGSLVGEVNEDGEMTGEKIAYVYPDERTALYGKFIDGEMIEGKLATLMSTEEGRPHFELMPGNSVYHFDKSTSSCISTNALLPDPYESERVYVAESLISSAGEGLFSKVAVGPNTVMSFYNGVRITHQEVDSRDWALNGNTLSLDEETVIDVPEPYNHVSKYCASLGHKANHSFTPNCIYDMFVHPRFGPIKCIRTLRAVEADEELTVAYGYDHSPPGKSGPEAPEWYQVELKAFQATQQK
The following applies: acts by attaching to the substrate peptide binding groove of SET7/9; cited from earlier work.

The test system of assay [5] is pulmonary artery endothelial cells. Description: EndMT marker expression (Western blot, qRT-PCR) in pulmonary artery endothelial cells treated with TGF-β2 and IL-1β. The assay is classed as cell-based, human. The following applies: PAECs treated simultaneously with TGF-β2, IL-1β and (R)-PFI-2. The protocol:
Pulmonary arterial ECs (PAECs) and human umbilical vein ECs (HUVECs) were cultured in EGM-2 (Lonza) to which MycoZap (Lonza) and 1% penicillin-streptomycin (Welgene) were added. Human Microvascular ECs (HMVECs) were cultured in EGM-2-MV (Lonza), and Lenti-λ-293T and MCF7 cells were cultured in Dulbecco's modified Eagle medium (DMEM) (HyClone) containing 10% fetal bovine serum (FBS, HyClone), 1% penicillin-streptomycin (Welgene), and MycoZap (Lonza). All cell lines were cultured at 37° C. in a 5% CO2 incubator and cultured at 90% density.
TGF-β2 was purchased from Peprotech and dissolved in pure water containing 0.1% bovine serum albumin (BSA). IL-1β was purchased from R&D System and dissolved in 1×PBS containing 0.1% BSA. […]
In order to isolate the total RNA, miRNeasy RNA isolation kit (QIAGEN) was used. The purified RNA was reverse transcribed using qPCRBIO cDNA Synthesis Kit (PCR-BIOSYSTEMS), and real-time quantitative PCR (qRT-PCR) was performed using qPCRBIO SyGreen Mix Hi-ROX (PCR-BIOSYSTEMS) according to the manufacturer's instructions. […]
All cells were lysed in radioimmunoprecipitation assay (RIPA) buffer (Biosesang) containing protease (GenDepot) and phosphatase (Sigma Aldrich) inhibitors for 20 minutes. […] A protein concentration was measured using Pierce BCA Protein Assay Kit (Thermo Scientific), and Laemmli SDS Sample Buffer was added to an equal amount of protein and boiled. […]

For assay [6] the test system is unchanged. Description: Phalloidin staining of cytoskeleton change in EndMT-induced pulmonary artery endothelial cells. In kind it is cell-based, human. Conditions: TGF-β2, IL-1β and (R)-PFI-2; FIG. 9C. The protocol:
PAECs and Lenti-X-293T were immobilized with 4% formaldehyde and washed with 1×PBS. Thereafter, the cells were permeabilized with 0.2% Triton X-100 and blocked with 1% BSA dissolved in 1×PBS for 1 hour at room temperature. The cells were reacted with the following primary antibodies at 4° C. overnight: anti-VE-cadherin (Cell Signaling, 2500S, 1:100), anti-Fibronectin (BD Pharmigen, 61007, 1:100), anti-TAGLN (Abcam, ab14106, 1:200), anti-α-SMA conjugated with Cy3 (Sigma Aldrich, C6198, 1:200), anti-NF-κB p65 (Cell signaling, 8242S, 1:400), anti-SET7/9 (LsBio, C337450, 1:100), and rhodamine phalloidin (Sigma Aldrich, 1:1,000). Secondary antibodies of donkey anti-goat Alexa Fluor 488 and donkey anti-goat Alexa Fluor 568 (Invitrogen, 1:400) were reacted at room temperature for 1 hour. In order to obtain immunostaining images, a confocal microscope equipped with a 60× objective lens (Zeiss LSM-700) was used.
In order to confirm the inhibitory effect of the drug on endothelial-mesenchymal transition, a model in which pulmonary artery endothelial cells were simultaneously treated with cyproheptadine along with TGF-β2 and IL-1β for 5 to 7 days was used. […]

Each structure is given as a SMILES string.

Turning to `O=C([C@@H](Cc1cccc(C(F)(F)F)c1)NS(=O)(=O)c1cc(F)c2c(c1)CCNC2)N1CCCC1` [(R)-PFI-2], the Dil-Ac-LDL uptake ability entry in assay [1] was “restored”. Moreover, in assay [2] (SuHx rat lung tissue, FIG. 10D), the “SET7/9 expression in blood vessels” value is listed as “decrease”; the “area where endothelial and mesenchymal cell markers were simultaneously stained (EndMT)” value is reported as “decrease”. Also, in assay [2] (SuHx rats, FIG. 10A), the “right ventricular systolic pressure (RVSP mmHg)” value is “decreased”. In addition, the “right ventricle/left ventricle+septum ratio (RV/LV+S %)” value in assay [2] (SuHx rats, FIG. 10B) is “decreased”. Also, the “right ventricle weight (RV mg)” value in assay [2] (SuHx rats, FIG. 10C) was “decreased”. Besides, in assay [2] (SuHx rats, FIG. 10D), the “muscularization of lung tissue blood vessels (immunohistochemical staining)” value is recorded as “significantly reduced”. In addition, in assay [2] (SuHx rats, FIG. 10F), the “expression of TGFβR1 in lung tissue” value is reported as “decreased”; the “expression of mesenchymal cell markers such as Twist and pVIM in lung tissue” value is “decreased”; the “expression of phosphorylated SMAD2 protein in lung tissue” value is listed as “significantly decreased”. For the same compound, the “number of blocked or enlarged blood vessels in lung tissue (H&E staining)” value in assay [2] (compared to SuHx group, FIG. 10E) is “reduced”. Moreover, in assay [3], the permeability result was “restored”. In assay [4], the “mode of inhibition of SET7/9” value was “substrate competitive inhibitor”. Moreover, in assay [5] (FIG. 9A), the “expression of endothelial cell marker CD31 and mesenchymal cell markers TNC, FN, Calponin, SM22α (Western blot)” value is recorded as “restoration”. Further, the “expression of PECAM1 and FN, CDH2, COL3A1 (qRT-PCR)” value in assay [5] (FIG. 9B) is recorded as “restoration”. Besides, the “change in cytoskeleton (phalloidin staining)” value in assay [6] is “reduced”.

The values are drawn from patent US20250154590A1, “USE OF SET7/9 FOR DIAGNOSING AND TREATING ENDMT-RELATED DISEASE” (IBMSOL CO., LTD., priority 2021, published 2025).
